Literature values, collected in publication PMC10620772, “Design, synthesis, and biological evaluation of new pyrimidine-5-carbonitrile derivatives as novel anti-cancer, dual EGFR^WT/COX-2 inhibitors with docking studies” (RSC Advances, 2023).

Key:
[1] = set-up: method as in PMID 26764192, PMID 22249410, PMID 21414695; conditions: cited from earlier work
[2] = system: MALME-3M; set-up: method as in PMID 32115728, PMID 32959865; conditions: cited from earlier work
[3] = system: HepG2; set-up: method as in PMID 32115728, PMID 32959865; conditions: antiproliferation; cited from earlier work

In the case of `COc1ccc(-c2nc(-c3ccc(Cl)cc3)[nH]c(=O)c2C#N)cc1` [I], the “antinociceptive activity compared to control” value [1] is listed as “more than 88%”.
For `CC(C)CSc1nc(Nc2ccc(C(=O)O)cc2)c(C#N)c(-c2ccccc2)n1` [F], the GI value [2] is listed as 152.04%.
In the case of `C=CCSc1nc(Nc2ccccc2)c(C#N)c(-c2ccccc2)n1` [E], the IC50 [3] is given as 3.56 µM.
